In ChEMBL document CHEMBL1151373, “Antitumor agents. 49 tricin, kaempferol-3-O-beta-D-glucopyranoside and (+)-nortrachelogenin, antileukemic principles from Wikstroemia indica” (1981):

Columns and labels:
Type in all cases: functional
P388 [1] = experiment: Cytotoxicity against mouse P388 cells xenografted in BDF1 mouse at 6 mg/kg relative to control
P388 [2] = experiment: Cytotoxicity against mouse P388 cells xenografted in BDF1 mouse at 12.5 mg/kg relative to control
[3] = Growth inhibition of mouse EAC cells xenografted in CF1 mouse at 3 mg/kg/day, ip; settings: Ehrlich, route intraperitoneal
P388 [4] = experiment: Cytotoxicity against mouse P388 cells xenografted in BDF1 mouse at 4 mg/kg relative to control
P388 [5] = experiment: Cytotoxicity against mouse P388 cells xenografted in BDF1 mouse at 8 mg/kg relative to control
P388 [6] = experiment: Cytotoxicity against mouse P388 cells xenografted in CDF1 mouse at 1 mg/kg relative to control
P388 [7] = experiment: Cytotoxicity against mouse P388 cells xenografted in CDF1 mouse at 4 mg/kg relative to control
P388 [8] = experiment: Cytotoxicity against mouse P388 cells xenografted in BDF1 mouse at 16 mg/kg relative to control
P388 [9] = experiment: Cytotoxicity against mouse P388 cells xenografted in CDF1 mouse at 2 mg/kg relative to control
P388 [10] = experiment: Cytotoxicity against mouse P388 cells xenografted in CDF1 mouse at 10 mg/kg relative to control
P388 [11] = experiment: Cytotoxicity against mouse P388 cells xenografted in CDF1 mouse at 16 mg/kg relative to control

## O=c1c(O[C@@H]2O[C@H](CO)[C@@H](O)[C@H](O)[C@H]2O)c(-c2ccc(O)cc2)oc2cc(O)cc(O)c12 [ASTRAGALIN]
P388 [1]
  T/C: 122%
P388 [2]
  T/C: 130%

## COc1cc2cc(Oc3ccc4ccc(=O)oc4c3)c(=O)oc2cc1O [DAPHNORETIN]
[3]
  inhibition in vivo at 3 mg/kg/day: 97%

## COc1cc(-c2cc(=O)c3c(O)cc(O)cc3o2)cc(OC)c1O [TRICIN]
P388 [1]
  T/C: 133%
P388 [2]
  T/C: 174%

## COc1cc(C[C@@H]2COC(=O)[C@@]2(O)Cc2ccc(O)c(OC)c2)ccc1O [WIKSTROMOL]
P388 [4]
  T/C: 122%
P388 [5]
  T/C: 130%
P388 [6]
  T/C: 130%
P388 [7]
  T/C: 137%
P388 [8]
  T/C: 130%
P388 [9]
  T/C: 141%
P388 [10]
  T/C: 146%
P388 [11]
  T/C: 154%
